From US20050136444A1 (priority 2003, published 2005)
“And” between values parts separate entries of the source, which are not always exact repeats. Identical values can stand only once. “Also recorded” adds a separate entry of the source. Counter-ions that a name gives are not always drawn. Like-named read-outs stand apart in the source and are kept apart here.

Legend:
NPFF2b = molecular target: T1, NPFF2b (Homo sapiens, UniProt Q9Y5X5); assay: cAMP assay in transiently transfected HEK-T cells, NPFF2; assay type: cell-based; settings: for EC50: cAMP data, Table 2, HEK-T cells, read-out: NPFF2b pEC50 Mean (converted)
T1 construct: expressed in transfected cells; host or cells: HEK-T
Method: An assay was established for measuring cAMP in transiently transfected cells that takes advantage of the fact that most cells that are transfected with one gene, can be simultaneously transfected with other genes. Thus, the NPFF1 and NPFF2 receptors were transfected along with a Gs-coupled receptor (EP2) at a ratio of 5:1.
This set up was routinely used for the transfection of HEK-T cells with NPFF1 and NPFF2 receptors. […] Cells were incubated for 15 minutes at 37° C. At the end of incubation, cells were lysed and the remainder of the assay performed as per DiscoveRx protocol.
Cells were incubated for another 15 minutes at 37° C. following which the cells were lysed and processed as per kit protocol.

rats = assay: Observed behaviors / side effects after systemic administration; assay type: in vivo, rat
Method: These behaviors typically precede “barrel-rolling” seizures.
These effects persisted between 15 and 20 minutes. These effects were not observed in rats that received doses less than 10 mg/kg.
These effects persisted between 15 and 20 minutes and were shown by both sham-operated and SNL rats. These effects were not observed in rats that received doses less than 10 mg/kg. [drawing 22]
However, these effects were more robust and of longer duration (60-90 min).
These effects persisted between 60 and 90 minutes and were shown by both sham-operated and SNL rats. These effects were not observed in rats that received doses less than 10 mg/kg. [drawing 23]
A model of neuropathic pain was created in rats by tight ligation of the L5 and L6 spinal nerves. […] Rats were then treated with various doses of dPQR (3, 10 and 30 mg/kg, i.p.) and paw withdrawal thresholds were tested across a period of 3 hours.
A model of neuropathic pain was created in rats by tight ligation of the L5 and L6 spinal nerves. […] Rats were then treated with various doses of Compound 3099 (1, 3 and 10 mg/kg, i.p.) and paw withdrawal thresholds were tested across a period of 3 hours.
In an attempt to increase the efficacy of Compound 3099 in the SNL model, we administered a dose of 30 mg/kg (i.p.) to SNL rats. […] Further, these behaviors were also transient, such that, by the end of the testing period these effects appeared to have resolved.

NPFF1 = NPFF1 (Homo sapiens, UniProt Q9GZQ6); assay: Receptor Selection and Amplification Technology (R-SAT) functional assay, NPFF1; assay type: cell-based; design: expressed in transfected cells; host or cells: NIH3T3; settings: for NPFF1 % Efficacy Mean: Hydrochloride
Procedure, shortened: (§1)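 NIH3T3 cells transiently transfected for 16-20 h with receptor and β-galactosidase plasmids, then grown with compound for five days at 5% CO2. Functional response read as β-galactosidase activity with ONPG substrate, colorimetric absorbance at 420 nm.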

[1] = tested on: L5/L6 SNL-induced Tactile Allodynia; assay: L5/L6 SNL-induced Tactile Allodynia; assay type: in vivo, rat; settings: for effect on L5/L6 SNL-induced tactile allodynia (paw withdrawal thresholds): various doses; for sensitivity to non-noxious mechanical stimulation in sham-operated rats: 10 mg/kg (1045, 2616), 30 mg/kg (dPQR)
Source text: This model of neuropathic pain was developed by Kim and Chung (Kim S H, Chung J M., “An experimental model for peripheral neuropathy produced by segmental spinal nerve ligation in the rat,” Pain, 1992 September; 50(3):355-63). This model requires the ligation of the L5 and L6 spinal nerves between the spinal cord and the entry point into the sciatic nerve. Seven to fourteen days following SNL surgery rats will be reassessed for their response thresholds to mechanical stimuli. For the assessment of paw withdrawal thresholds rats were allowed to acclimate within plexiglass enclosures for approximately 20 min. A series of calibrated von Frey filaments (1.56-15.0 g, logarithmically spaced) were applied to the plantar aspect of the injured hind paw until a response was elicited. Paw withdrawal thresholds to probing were determined according to a previously described method (Chaplan S R, Bach F W, Pogrel J W, Chung J M, Yaksh T L., “Quantitative assessment of tactile allodynia in the rat paw,” J Neurosci Methods, 1994 July;53(1):55-63). Paw withdrawal thresholds were determined to the nearest 0.1 g before surgery, then before and at multiple time points following compound administration. A significant reduction in the paw withdrawal threshold was interpreted as the presence of tactile allodynia.
In order to study the endogenous activity of the NPFF system following injury to peripheral nerves, the activity of a FF1 receptor antagonist, dPQR, was assessed in a model of neuropathic pain. In this model, the L5 and L6 spinal nerves between the spinal cord and the entry point into the sciatic nerve were ligated (Kim & Chung, 1992). Seven to fourteen days following SNL surgery rats were reassessed for their response thresholds to mechanical stimuli. For the assessment of paw withdrawal thresholds rats were allowed to acclimate within plexiglass enclosures for approximately 20 min. A series of calibrated von Frey filaments (1.56-15.0 g, logarithmically spaced) were applied to the plantar aspect of the injured hind paw until a response was elicited. Paw withdrawal thresholds to probing were determined according to a previously described method (Chaplan et al., 1994). Paw withdrawal thresholds were determined to the nearest 0.1 g before surgery, then before and at multiple time points following compound administration. A significant reduction in the paw withdrawal threshold was interpreted as the presence of tactile allodynia.
A model of neuropathic pain was created in rats by tight ligation of the L5 and L6 spinal nerves. […] Rats were then treated with various doses of Compound 1045 (1, 3 and 10 mg/kg, i.p.) and paw withdrawal thresholds were tested across a period of 2 hours.

NPFF2 = molecular target: T2, NPFF2 (Homo sapiens, UniProt Q9Y5X5); assay: Receptor Selection and Amplification Technology (R-SAT) functional assay, NPFF2; assay type: cell-based; settings: for NPFF2b % Efficacy Mean: Hydrochloride
T2 construct: expressed in transfected cells; host or cells: NIH3T3
Procedure, shortened: as §1

[2] = R-SAT data, Table 2, multiple entries = different batches
[3] = R-SAT data, Table 2, multiple entries = different batches, read-out: NPFF1 % Efficacy Mean
[4] = NPFF2b pEC50 Mean, R-SAT data, Table 2, multiple entries = different batches
[5] = R-SAT data, Table 2, multiple entries = different batches, read-out: NPFF2b % Efficacy Mean
[6] = R-SAT, Table 1, Efficacy is relative to endogenous ligand, read-out: NPFF1 % Efficacy
[7] = R-SAT, Table 1, Efficacy is relative to endogenous ligand, read-out: NPFF2 % Efficacy

T1 sequence (Q9Y5X5 103-522 limits assumed): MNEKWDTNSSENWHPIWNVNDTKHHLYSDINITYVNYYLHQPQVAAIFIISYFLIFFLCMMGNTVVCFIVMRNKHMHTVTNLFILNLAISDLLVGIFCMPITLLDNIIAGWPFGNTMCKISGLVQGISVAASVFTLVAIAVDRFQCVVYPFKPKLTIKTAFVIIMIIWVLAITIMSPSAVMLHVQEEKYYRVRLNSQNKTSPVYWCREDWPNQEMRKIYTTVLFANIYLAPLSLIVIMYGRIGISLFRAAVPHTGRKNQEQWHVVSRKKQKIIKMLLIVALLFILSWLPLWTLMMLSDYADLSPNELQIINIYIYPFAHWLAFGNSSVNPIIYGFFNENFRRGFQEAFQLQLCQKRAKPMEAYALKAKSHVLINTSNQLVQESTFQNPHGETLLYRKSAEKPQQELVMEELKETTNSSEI
T2 sequence (Q9Y5X5 103-522): as the sequence (Q9Y5X5 103-522 limits assumed) above
Chain of NPFF1 (Q9GZQ6 whole entry, species assumed): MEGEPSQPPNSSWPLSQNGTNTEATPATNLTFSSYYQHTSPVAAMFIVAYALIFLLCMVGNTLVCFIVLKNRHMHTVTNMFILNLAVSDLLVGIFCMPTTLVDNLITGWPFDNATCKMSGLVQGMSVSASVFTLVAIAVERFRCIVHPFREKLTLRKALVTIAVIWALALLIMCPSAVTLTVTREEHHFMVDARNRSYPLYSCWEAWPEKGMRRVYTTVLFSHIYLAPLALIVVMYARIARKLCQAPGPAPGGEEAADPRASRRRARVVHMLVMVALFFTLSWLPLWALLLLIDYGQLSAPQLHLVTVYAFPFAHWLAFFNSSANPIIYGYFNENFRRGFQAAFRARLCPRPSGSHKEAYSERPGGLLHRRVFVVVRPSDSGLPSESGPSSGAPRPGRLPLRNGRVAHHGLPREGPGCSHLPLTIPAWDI

SMILES | EC50 (NPFF2b) [µM] | side effects at doses less than 10 mg/kg (rats; rat, in vivo) | side effects observed (rats; rat, in vivo, ip, 10 mg/kg) | NPFF1 % Efficacy Mean (NPFF1; [2]) | Emax (NPFF1; [3]) [%] | effect on L5/L6 SNL-induced tactile allodynia (paw withdrawal thresholds) ([1]; SNL rats, i.p., Hydrochloride) | EC50 (NPFF2; [4]) | NPFF2b % Efficacy Mean (NPFF2; [2]) | Emax (NPFF2; [5]) [%] | Emax (NPFF1; [6]) [%] | Emax (NPFF2; [7]) [%] | other results
NC(N)=NN=Cc1ccc(-c2ccccc2C(F)(F)F)o1 (racemic) [Compound 2616, 1-[(5-(2-(Trifluoromethyl)phenyl)-furan-2-yl)-methyleneamino]guanidine Hydrochloride] | 3.16 | not observed | demonstrated writhing behavior and appeared lethargic | 66.3% and 52.1% | 55 | either demonstrate very little efficacy or potentiate tactile allodynia; also recorded: dose-related potentiation of tactile allodynia | 0.1 µM | 80.4% and 72.9% | 63 |  |  | Emax (NPFF2b; HEK-T cell, read-out: NPFF2b % Efficacy Mean): 114%; duration of side effects (rats; rat, in vivo, ip, 10 mg/kg): 60 to 90 min; EC50 (NPFF1): 0.0398 µM; EC50 (NPFF1; R-SAT data, Table 2, multiple entries = different batches, read-out: NPFF1 pEC50 Mean (converted)): 1.26 µM and 0.316 µM; sensitivity to non-noxious mechanical stimulation in sham-operated rats ([1]; i.p., Hydrochloride): produced tactile allodynia in sham-operated rats; also recorded: significant reduction in the paw withdrawal thresholds of sham-operated rats
Cl.N=C(N)N/N=C/c1ccc(Br)c(Br)c1 [Compound 3093, 1-(3,4-Dibromobenzylideneamino)guanidine Hydrochloride] | 6.31 |  |  | 11.7% | 10.2 | dose-dependently reverse tactile allodynia; also recorded: dose-related reversal of tactile allodynia |  | 89.9% | 85.3 | 11 | 89 | behaviors observed (typically precede barrel-rolling seizures) (rats; rat, in vivo, ip, 30 mg/kg): immobility and staring, ataxia, splayed hind limbs, body swaying, lying on one side with spastic limb abduction and body distortions; time of peak effect after administration ([1]; SNL rats, i.p.): 30 min; calculated A50, reversal of tactile allodynia ([1]; SNL rats, i.p., 95% CI): 6.2 mg; EC50 (NPFF2; R-SAT data, Table 2, multiple entries = different batches, read-out: NPFF2b pEC50 Mean (converted)): 0.631 µM and 1.26 µM; EC50 (NPFF2; R-SAT, Table 1, NA = No activity detectable at the highest dose tested (20 μM), read-out: NPFF2 pEC50 (converted)): 1.58 µM
NC(N)=N/N=C/c1ccc(Cl)c(Cl)c1 [Compound 1045, 1-(3,4-Dichlorobenzylideneamino)guanidine Hydrochloride] |  | not observed | demonstrated writhing behavior and appeared lethargic |  | 6.3 |  | 0.794 µM and 0.501 µM | 55.2% | 63.8 | 17 | 64 | duration of side effects (rats; SNL rats, 30 mg/kg): 60 to 90 min; new side effects noted (rats; rat, in vivo, 30 mg/kg): ptosis, shuffling/stomping and biting of forlimbs and hindlimbs; efficacy against SNL-induced tactile allodynia at 30 mg/kg ([1]; SNL rats, 30 mg/kg): initially efficacious at the 30 min time-point; paw withdrawal thresholds by 60 min and until the end of the testing session ([1]; SNL rats, 30 mg/kg, suggests potentiation of tactile allodynia): significantly reduced the paw withdrawal thresholds to levels below those obtained in SNL vehicle-treated rats; maximum efficacy, reversal of tactile allodynia ([1]; SNL rats, i.p.): 37.9%; sensitivity to non-noxious mechanical stimulation in sham-operated rats ([1]; i.p.): did not significantly alter sensitivity to non-noxious mechanical stimulation; EC50 (NPFF2; NPFF2 pEC50, R-SAT, Table 1, NA = No activity detectable at the highest dose tested (20 μM)): 0.794 µM
